In US11903925B2, “Compositions for preventing and treating pulmonary injury due to ionizing radiation or cytotoxic drugs” (RepoCeuticals A/S, priority 2015, dated 2024):
Each block holds one compound with its values, some of them ahead of it.

What was measured:
[1] = Stability (suitability for use in a pharmaceutical composition); settings: hence unsuitable for use in a pharmaceutical composition
[2] = Solubility of melatonin in water / aqueous solution; assay type: physicochemical; settings: straightforward attempts at dissolving melatonin in water
Procedure: The pharmaceutical composition of the present invention may be in the form of a powder, solution, emulsion, suspension, or micellar, microsphere, microcapsular, nanoparticulate or liposomal preparation. Melatonin and most of its analogues, derivatives and metabolites are only sparingly soluble in water, straightforward attempts at dissolving melatonin in water yielding a maximum melatonin concentration of only 0.1 mg/mL. Higher concentrations of melatonin are needed if aqueous preparations of melatonin are to be administered in a convenient manner, e.g. by the inhalation of an aerosol of the preparation, to the airways epithelium at the concentrations estimated to be necessary to exert a protective action against free radical damage. A method of achieving this is outlined below.
A further formulation is to supply the composition as a dry powder as described above in a capped vial, to be reconstituted as a solution for nebulization by adding a given volume of sterile water from a second vial, to be used within one hour. The water for dissolving the formulation may contain the empirically determined amount of salts and buffering ions to produce a solution of the composition that has a near-physiological pH and osmolarity with reference to plasma to avoid the provocation of cough and bronchoconstriction on inhalation. […]

[3] = test system: lung; settings: use of cytotoxic chemotherapeutic agents for cancer; cited from earlier work

Compound: COc1ccc(N)c(C(=O)CCNC(C)=O)c1 [N^1-acetyl-5-methoxykynuramine]
- stability [1]: unstable

- maximum melatonin concentration in water [2]: 0.1 mg/mL
Compound: COc1ccc2[nH]cc(CCNC(C)=O)c2c1 [melatonin, N-acetyl-5-methoxytryptamine]

Compound: Bleomycin
- overall rate of pulmonary damage [3]: over 40%
